What was measured:
[1] = Pharmacokinetics after intraperitoneal injection, plasma and brain by LC-MS/MS; type: in vivo; conditions: mice, 2 mg/kg intraperitoneal
Method: The ability of the ML-348 molecule to freely cross the blood brain barrier is an additional argument towards the efficacy of the molecule in vivo in mice.
Plasma proteins were precipitated by adding 800 μL acetonitrile into 400 μL of sample. Brains were ground into 400 μL H2O before adding 800 μL acetonitrile. Samples were centrifuged to remove insoluble residues at 15.000 g for 5 minutes at 16° C. Supernatants were analyzed by LC-MS/MS. LC-MS/MS was assessed by high-performance liquid chromatography (UHPC) coupled with a triple quadrupole (Shimadzu LC-MS 8030). Analyses were performed from 3 mice for each time point.
Before investigating ML-348 in vivo, the inventors first evaluated the pharmacokinetics of the molecule. […] They then evaluated the efficacy of the molecule to increase brain palmitoylation level 30 minutes after injection. For this purpose, they performed an Acyl-Biotin-Exchange (ABE) assay to biotinylate palmitoylated proteins before their immunoprecipitation with streptavidin-coated beads (FIG. 4D).

[2] = test system: cortical neurons from WT and Hdh^CAG/+ mice; assay: BDNF-mCherry axonal transport in corticostriatal network on microfluidic device; type: cell-based, mouse
Method: Referring to FIG. 3A, the inventors have reproduced the corticostriatal network in vitro on a microfluidic device consisting of two neuronal chambers that are connected via microchannels. Experiments are performed over a period of time ranging from 2 to 12 days in vitro (Days in vitro), i.e. DIV2 to DIV12, and a fixation/acquisition at DIV12.
For striatal StHdh cells, acute treatment was performed at 10 μM for 1 hour before and during the acquisition time. For neurons within the microchambers, treatments were started at DIV2 until DIV12 every day at 1 μM in each compartment of the microfluidic device.
The inventors then investigated whether ML-348 is able to restore dysfunctions of the corticostriatal network in Huntington's disease. Indeed, corticostriatal circuit is particularly altered in Huntington's disease, which manifests itself by a dysfunction and a degeneration of both the striatal neurons and their corticostriatal afferences. They developed a microfluidic-based approach that enables the reconstruction of a time- and space-controlled neuronal network compatible with fast spinning confocal videomicroscopy. This system uses a silicon polymer-based microfluidic device composed of two fluidically-isolated neuronal chambers that are connected via a set of thin microchannels through which neurites can grow and contact each other in an intermediate synaptic compartment. Using primary neuron cultures, they reconstituted a corticostriatal network in which cortical neurons project to striatal target neurons through oriented axodendritic connections (FIG. 3A). These devices are compatible with drug treatment and therefore can be used to test pharmacological agents in vitro on this functional circuit.
Cortical neurons from WT and Hdh^CAG/+ mice were infected with BDNF-mCherry lentivirus and acquisitions were performed at Day 12 in the distal part of the long microchannels to analyze axonal transport of BDNF (FIG. 3B). As expected, defects in axonal transport in HD (Huntington's disease) neurons were identified for both the anterograde and retrograde transport velocities, and also in the number of vesicles travelling along the microtubules (FIG. 3C-3E). These effects lead to a reduction of the linear net flux with no impact one the directionality of the vesicles (FIGS. 3F and 3G).

Hdh^CAG140/+ mice = assay: Horizontal Ladder test; type: in vivo, mouse; conditions: Hdh^CAG/+ mice, 0.3 mg/kg/day subcutaneous infusion; values similar to wild-type
Method: Mice littermates were grouped into mixed treatment groups. Males and females were 6 months of age at the beginning of the treatment. For each specific test, all experimental groups were tested on the same day, during the light phase and between Days 16 and 28 of treatment. Prior to testing, mice were acclimatized to the test room for a period of 30 minutes. Treatments were randomly assigned and behavioral tests were performed 12 days before the end of the delivery of the treatment. […] Mice were excluded from analysis if their performance was calculated as a significant outlier by the Grubb test. One mouse was excluded based on these criteria. Mouse weights were measured prior to the start of treatment and until the end of testing.
A horizontal ladder is used to assess forelimb and hindlimb placement and coordination. The horizontal ladder is composed of two clear Plexiglas walls (69.50×15 cm) containing metal rungs (0.2 cm diameter) irregularly spaced (between 0.5 and 2 cm apart). Mice were habituated to walk on a horizontal ladder during two consecutive days (3 trials per day). Then the mice were tested (3 trials) with a different pattern than the two days of habituation. Test trials were videorecorded, and the motor performance as well as the latency to complete the task were quantified. Data are expressed as the average of the 3 trials.

ERK phosphorylation = assay: Postsynaptic signaling: phosphoERK immunopositive striatal neurons after glycine/strychnine stimulation; type: cell-based, mouse; conditions: Hdh^CAG/+ neurons, 1 μM daily; glycine/strychnine 15 minutes
Method: They used ERK phosphorylation as the readout of the postsynaptic signaling. […] The inventors stimulated cortical neurons for 15 minutes with glycine/strychnine and quantified the percentage of striatal neurons immunopositive for phosphoERK (FIG. 3J).

[3] = Hdh^CAG/+ network, 1 μM daily DIV2 to DIV12

For `O=C(CN1CCN(C(=O)c2ccco2)CC1)Nc1cc(C(F)(F)F)ccc1Cl` [ML-348], the “crossing of the blood brain barrier ([Brain]/[Plasma] values)” value ([1]; 30, 60 and 180 minutes) was “effectively crosses the blood brain barrier”, the “degradation after injection (plasma and brain levels)” value ([1]; 60 minutes after injection) was “rapidly degraded” and the “anterograde and retrograde transport velocities of BDNF-mCherry” value [2, 3] was “restored to values approximately equal to those of the wild type”. For the same compound, the “linear net flow of BDNF-mCherry vesicles” value [2, 3] was “restored to values approximately equal to those of the wild type”, the “number of anterograde and retrograde vesicles moving over 100 μm for 30 seconds” value [2, 3] was “restored to values approximately equal to those of the wild type” and the “effect on BDNF trafficking in WT neurons” value ([2]; WT neurons, 1 μM daily) was “inhibitory effect on BDNF trafficking”. For the same compound, the average error score (Hdh^CAG140/+ mice) was “significant improvement”, the “average time to cross the horizontal ladder” value (Hdh^CAG140/+ mice) was “significant improvement” and the “percentage of immunopositive phosphoERK cells in the postsynaptic space” value (ERK phosphorylation) was “restore postsynaptic signaling to values encountered in wild-type neurons”.

Source: patent US12551479B2, “Acyl-protein thioesterase inhibitor for the treatment and/or prevention of Huntington's disease” (UNIVERSITÉ GRENOBLE ALPES, priority 2019, dated 2026)
